Measured values reported in ChEMBL document CHEMBL5729117, “Heteroaryl Rheb inhibitors and uses thereof” (2022).

Each molecule was assayed against GTP-binding protein Rheb (Homo sapiens, UniProt Q15382) (assay: In Vitro Kinase Assay: For the Rheb-dependent in vitro kinase assay, HA-GST-Rheb was first loaded with GTP-γ-S (Millipore #20-176) by incubating 600 ng/μL Rheb with 10 mM EDTA and 0.4 mM GTP-γ-S at 30° C. for 10 minutes. MgCl2 was added to a final concentration of 20 mM to stop the reaction. This mixture was used at 20× in the kinase assay.Loaded HA-GST-Rheb was then incubated with compound (final DMSO concentration 1%) for 30 minutes at room temperature. mTORC1, GFP-4E-BP1 substrate (Life Technologies #PV4759), and kinase assay buffer (HEPES pH 7.4, KCl, MgCl2) were added to the Rheb-compound mixture and incubated at room temperature for 20 minutes. ATP was then added, and the kinase reaction proceeded at 30° C. for 45 min before being stopped by the addition of SDS-PAGE loading buffer for Westerns or 10 mM EDTA for the LanthaScreen readout. During the kinase reaction, the final concentration of reagents is as follows: Rheb—30 ng/μL, compound—variable, GTPγS—0.02 mM, EDTA—0.5 mM, MgCl2—1 mM, mTORC1—fixed volume of prep (molarity unknown), GFP-4E-BP1 substrate—15 ng/μL, ATP—0.5 mM. For LanthaScreen analysis (Thermo Fisher #PV4757), the manufacturer's instructions were followed and conditions were optimized for the amount of Rheb and mTORC1. The final concentration of reagents was as follows: 100 nM loaded HA-GST-Rheb, compound (variable), 0.5 mM EDTA, 10 mM MgCl2, 25 mM HEPES pH 7.4, 50 mM KCl, mTORC1 (fixed volume—0.1 μL in 10 μL total volume), 0.4 μM GFP-4E-BP1 substrate, 0.5 mM ATP. Results were read on an EnVision reader (PerkinElmer) using 495ex/520em filters (Life Technologies, #PV00315).).
GTP-binding protein Rheb, sequence (Q15382 whole entry): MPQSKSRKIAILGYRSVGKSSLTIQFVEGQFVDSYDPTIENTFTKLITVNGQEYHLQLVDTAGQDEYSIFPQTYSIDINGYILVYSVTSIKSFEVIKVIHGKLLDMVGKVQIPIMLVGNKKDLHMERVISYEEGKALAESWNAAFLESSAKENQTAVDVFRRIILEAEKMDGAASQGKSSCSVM

Structure (SMILES)	IC50 [µM]
Cc1cc(C(C)(C)C)ccc1Sc1cc(Cl)cc2[nH]c(CO)cc12	< 10
OCc1cc2c(Sc3ccc(Cl)cc3Cl)cc(Cl)cc2[nH]1	< 10
CN1CCCN(c2ccc(NC(=O)c3cc4c(-c5cc(Cl)cc(Cl)c5)cc(Cl)cc4[nH]3)cc2F)CC1	< 10

Next, values leading:

IC50 [µM]	Structure (SMILES)
< 10	O=C(O)c1cc2c(Sc3ccc(C(F)(F)F)cc3)cc(Cl)cc2[nH]1
< 10	Cc1cc(C(C)(C)C)ccc1Sc1cc(Cl)cc2[nH]c(C(=O)O)cc12
